In the supplement of paper PMC11451515:

System: P12-Ichikawa
Experiment: cell viability relative to DMSO control; higher = less cytotoxic
Conditions: 48 h
Outline: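 NOMO1 or SEM cells were plated at 500 cells/well and P12-Ichikawa cells at 1000 cells/well in 1536-well plates (5 μl), after each leukemia line had been adapted for at least four passages in each medium. Pin dosing delivered library compounds in DMSO at 11 threefold concentrations, 47 μM to 0.79 nM. CellTiter-Glo One luminescence was read after 48 h at 37°C. Viability is reported as a per-plate percentage of DMSO wells, with cell-free wells as background.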

[1] = HPLM + 10% dialyzed FBS, 0.000781 µM
[2] = HPLM + 10% dialyzed FBS, 0.00234 µM
[3] = HPLM + 10% dialyzed FBS, 0.00702 µM
[4] = HPLM + 10% dialyzed FBS, 0.0211 µM
[5] = HPLM + 10% dialyzed FBS, 0.0632 µM
[6] = HPLM + 10% dialyzed FBS, 0.19 µM
[7] = HPLM + 10% dialyzed FBS, 0.569 µM
[8] = HPLM + 10% dialyzed FBS, 1.71 µM
[9] = HPLM + 10% dialyzed FBS, 5.12 µM
[10] = HPLM + 10% dialyzed FBS, 15.4 µM
[11] = HPLM + 10% dialyzed FBS, 46.1 µM
[12] = RPMI 5 mM glucose + 10% FBS, 0.000781 µM
[13] = RPMI 5 mM glucose + 10% FBS, 0.00234 µM
[14] = RPMI 5 mM glucose + 10% FBS, 0.00702 µM
[15] = RPMI 5 mM glucose + 10% FBS, 0.0211 µM
[16] = RPMI 5 mM glucose + 10% FBS, 0.0632 µM
[17] = RPMI 5 mM glucose + 10% FBS, 0.19 µM
[18] = RPMI 5 mM glucose + 10% FBS, 0.569 µM
[19] = RPMI 5 mM glucose + 10% FBS, 1.71 µM
[20] = RPMI 5 mM glucose + 10% FBS, 5.12 µM
[21] = RPMI 5 mM glucose + 10% FBS, 15.4 µM
[22] = RPMI 5 mM glucose + 10% FBS, 46.1 µM
[23] = RPMI 5 mM glucose + 10% dialyzed FBS, 0.000781 µM
[24] = RPMI 5 mM glucose + 10% dialyzed FBS, 0.00234 µM
[25] = RPMI 5 mM glucose + 10% dialyzed FBS, 0.00702 µM
[26] = RPMI 5 mM glucose + 10% dialyzed FBS, 0.0211 µM
[27] = RPMI 5 mM glucose + 10% dialyzed FBS, 0.0632 µM
[28] = RPMI 5 mM glucose + 10% dialyzed FBS, 0.19 µM
[29] = RPMI 5 mM glucose + 10% dialyzed FBS, 0.569 µM
[30] = RPMI 5 mM glucose + 10% dialyzed FBS, 1.71 µM
[31] = RPMI 5 mM glucose + 10% dialyzed FBS, 5.12 µM
[32] = RPMI 5 mM glucose + 10% dialyzed FBS, 15.4 µM
[33] = RPMI 5 mM glucose + 10% dialyzed FBS, 46.1 µM

Structure (SMILES) | cell viability [1] [%] | cell viability [2] [%] | cell viability [3] [%] | cell viability [4] [%] | cell viability [5] [%] | cell viability [6] [%] | cell viability [7] [%] | cell viability [8] [%] | cell viability [9] [%] | cell viability [10] [%] | cell viability [11] [%] | cell viability [12] [%] | cell viability [13] [%] | cell viability [14] [%] | cell viability [15] [%] | cell viability [16] [%] | cell viability [17] [%] | cell viability [18] [%] | cell viability [19] [%] | cell viability [20] [%] | cell viability [21] [%] | cell viability [22] [%] | cell viability [23] [%] | cell viability [24] [%] | cell viability [25] [%] | cell viability [26] [%] | cell viability [27] [%] | cell viability [28] [%] | cell viability [29] [%] | cell viability [30] [%] | cell viability [31] [%] | cell viability [32] [%] | cell viability [33] [%]
CC(C)[C@@H](N(CCCN)C(=O)C1=CC=C(C)C=C1)C/2=N/C3=CC(=CC=C3C(=O)N2CC4=CC=CC=C4)Cl | 97.6 | 12 | 10.4 | 8.9 | 8.1 | 8.2 | 5.86 | 7.66 | 5.88 | 7.47 | 8.59 | 96.2 | 12.6 | 10.8 | 11.7 | 9.51 | 12 | 8.85 | 8.68 | 7.23 | 7.78 | 7.67 | 88.8 | 48.5 | 18.6 | 14.5 | 12.8 | 13.4 | 11.1 | 14.6 | 11.3 | 11.3 | 10.9
CN1[C@@H]2CC(OC(=O)[C@@H](CO)c3ccccc3)C[C@H]1[C@H]1O[C@H]12 (stereo not given in full) | 97 | 94.9 | 103 | 103 | 101 | 101 | 101 | 103 | 98.7 | 92.9 | 102 | 98.8 | 100 | 102 | 106 | 107 | 105 | 106 | 110 | 98.8 | 104 | 104 | 94.3 | 97.1 | 93.1 | 95.2 | 99.2 | 96.3 | 93.3 | 95 | 101 | 89.5 | 105
[NH2][Pt]1([NH2])[O]CC(=O)[O]1 | 93.6 | 98.4 | 101 | 95.7 | 105 | 102 | 102 | 101 | 105 | 103 | 105 | 98.5 | 88.3 | 96.9 | 99.5 | 104 | 99.2 | 102 | 88.5 | 92.4 | 95.2 | 102 | 86.2 | 93 | 96.4 | 89.4 | 92.1 | 89.9 | 97.8 | 89.6 | 91.1 | 92.4 | 93.8
C[C@@H](NC1=CC=CC=C1C(O)=O)C/2=C/C(=C\N3C(=O)/C=C(\N=C23)N4CCOCC4)C | 87.2 | 87 | 101 | 94.1 | 95.9 | 93.2 | 97.1 | 89.3 | 75 | 60.5 | 39.9 | 82.4 | 78.7 | 83.5 | 97.1 | 92.1 | 84.7 | 85.7 | 72.2 | 59.2 | 47.9 | 27.6 | 77.7 | 85.3 | 93.1 | 92.9 | 90.5 | 88.4 | 80 | 87.4 | 61.9 | 46.3 | 33.1
CC\1=C/C=C\C=[N]1[Pt](N)(Cl)Cl | 98.1 | 108 | 113 | 108 | 105 | 109 | 102 | 114 | 104 | 107 | 108 | 98.1 | 98.4 | 102 | 104 | 118 | 118 | 114 | 106 | 99.1 | 108 | 97.3 | 102 | 109 | 98.3 | 107 | 114 | 112 | 110 | 105 | 105 | 87.2 | 91.4
CC(=O)N(C)c1cccc(-c2ccnc3c(C(=O)c4cccs4)cnn23)c1 | 103 | 115 | 109 | 101 | 108 | 110 | 99.8 | 120 | 103 | 99.3 | 94.5 | 106 | 96.8 | 88.5 | 80.9 | 102 | 101 | 107 | 90.5 | 95.8 | 88.1 | 90.2 | 105 | 98.7 | 105 | 88 | 93.9 | 103 | 107 | 89.7 | 95 | 90.3 | 92
Cc1c(CCOc2ccc(C(=O)O)cc2)c2cc(Cl)ccc2n1C(c1ccccc1)c1ccccc1 | 123 | 110 | 112 | 117 | 113 | 113 | 107 | 105 | 101 | 83.8 | 71.8 | 109 | 112 | 111 | 111 | 108 | 108 | 112 | 101 | 106 | 103 | 86.1 | 109 | 111 | 116 | 116 | 107 | 110 | 104 | 113 | 99.3 | 103 | 88.8
CC1=CC=CC=C1N2\C(=N/C3=C(C(=CC=C3)C)C2=O)C[N]4C=NC5=C4N=CN=C5N | 115 | 124 | 122 | 85 | 120 | 118 | 108 | 106 | 79.5 | 78.2 | 82.2 | 113 | 116 | 107 | 79.6 | 109 | 98.1 | 97.6 | 81.2 | 62.8 | 60.5 | 57.9 | 107 | 123 | 116 | 81.7 | 128 | 112 | 108 | 95.6 | 70.2 | 56 | 63.9
N=C(CCSCc1csc(N=C(N)N)n1)N[S+](N)(=O)[O-] | 95.2 | 102 | 103 | 95.7 | 108 | 98.2 | 106 | 103 | 106 | 108 | 102 | 93.1 | 97.4 | 97.3 | 94 | 96.2 | 93.2 | 97.6 | 95.3 | 95.3 | 87.3 | 99.1 | 80.3 | 89.1 | 98.3 | 91 | 95.1 | 94.9 | 95 | 88.7 | 93.5 | 87.1 | 83.2
CC(N[C@H]1C[C@@H]1c1ccccc1)c1ccc2c(c1)OCCO2 (stereo not given in full) | 119 | 117 | 121 | 128 | 119 | 118 | 116 | 113 | 107 | 112 | 104 | – | – | – | – | – | – | – | – | – | – | – | – | – | – | – | – | – | – | – | – | – | –
CC[C@H](CC#N)OC(=O)N[C@@H](C)c1cccc(NC(=O)Nc2ccc(-c3cnco3)c(OC)c2)c1 | 117 | 112 | 120 | – | 111 | 107 | 106 | 74.9 | 49.8 | 49.1 | 40.6 | 119 | 121 | 118 | 117 | 132 | 113 | 97.2 | 65.9 | 44.3 | 33.4 | 30.4 | 112 | 120 | 111 | 120 | 121 | 110 | 90.4 | 59.1 | 42.3 | 40.2 | 40.6
CC1(C)CC(=O)c2c(C(F)(F)F)nn(-c3ccc(C(N)=O)c(NC4CCC(O)CC4)c3)c2C1 (stereo not given) | 90.3 | 87.3 | 85.5 | 82.4 | 90 | 67.1 | 42 | 33.7 | 36.1 | 36.6 | 80.9 | 84 | 93.5 | 85.6 | 77.6 | 82.2 | 48.2 | 32.1 | 25.6 | 27.6 | 28.1 | 84.5 | 84.2 | 81.9 | 81.9 | 73.1 | 80.8 | 44.3 | 28.7 | 30.4 | 25.5 | 27.8 | 73.7
CC/1=C/C(=O)N(O)/C(=C1)C2CCCCC2 | 115 | 118 | 123 | 132 | 130 | 125 | 121 | 127 | 113 | 74.8 | 28.5 | – | – | – | – | – | – | – | – | – | – | – | – | – | – | – | – | – | – | – | – | – | –
CC1=C(/C=C/C(C)=C/C=C/C(C)=C/C=C/C=C(C)/C=C/C=C(C)/C=C/C2=C(C)CCCC2(C)C)C(C)(C)CCC1 | 112 | 112 | 109 | 110 | 109 | 106 | 108 | 107 | 112 | 95.1 | 99.3 | 111 | 119 | 110 | 111 | 116 | 105 | 111 | 109 | 108 | 95.8 | 95.4 | 117 | 113 | 118 | 108 | 109 | 106 | 107 | 106 | 106 | 103 | 85.7
COC(=O)Nc1nc2cc(C(=O)c3cccs3)ccc2[nH]1 | 121 | 107 | 110 | 55.9 | 37 | 17.8 | 25.4 | 14.6 | 10.1 | 10.2 | 36.8 | 117 | 123 | 119 | 82 | 42.2 | 18.1 | 23.3 | 16.7 | 10.5 | 11.8 | 33.1 | 120 | 114 | 128 | 96.5 | 57.6 | 27.3 | 35 | 25.1 | 17.4 | 18.5 | 48
